This passage reports IC50 results from patent US10227324B2 (Shanghai Haiyan Pharmaceutical Technology Co., Ltd., priority 2014, dated 2019).

The subject of one assay is MCF-7 cells. The experiment in a line: Cell inhibitory activity detected by MTT assay, MCF-7. Type of assay: cell-based. The following applies: Homo sapiens, MCF7, 72 h, read-out: MCF-7 cell (IC50/nM), cell growth inhibition. As for the experimental part:
(§1) The MTT assay procedure and steps were carried out as well known to those skilled in the art, and all the reagents used in the methods were commercially available. The cells in logarithmic growth phase were digested with 0.25% EDTA trypsin (Gibco, 25200-056) and resuspended in fresh medium. 90 μL of the cell suspension was inoculated into a 96-well cell culture plate (BD Faclon 353072) with a suitable cell density and cultured at 37° C. under 5% CO2. After the cells adhered, 10 μL of the test compound at different concentrations (0.0046-10 μM, 8 concentration points) was added and incubated for another 72 h. 10 μL of MTT (5 mg/mL PBS solution) (Sigma, M5655) was added to react for 4 h. The absorbance at 492 nm was measured by using Thermo Scientific Multiskan MK3 microplate reader and IC50 was calculated using XLFIT 5.0 software (UK IDBS). MCF-7 cell culture medium: DMEM medium (Hyclone SH30243.01B+10% FBS (Gibco 10099-141)
In general terms: Tetrazolium dyes change colour on reduction, which living cells bring about.

For another assay, the system named is NIH3T3 cells. The experiment in a line: Cytotoxicity by MTT assay, NIH3T3. Type of assay: cell-based. The note with it: Mus musculus, NIH3T3, 72 h, cytotoxicity class, read-out: NIH3T3 cell (IC50/nM). As for the experimental part:
The MTT assay procedure and steps were carried out as well known to those skilled in the art, and all the reagents used in the methods were commercially available.
as §1, with “The” for “The MTT assay procedure and steps were carried out as well known to those skilled in the art, and all the reagents used in the methods were commercially available. The”, “IDBS).” for “IDBS). MCF-7 cell culture medium: DMEM medium (Hyclone SH30243.01B+10% FBS (Gibco 10099-141)”

The target in assay [1] is T1, PI3K-α kinase (p110α/p85α) (Homo sapiens, UniProt P42336).
T1 construct: purchased Invitrogen PV4788
T1 sequence (P42336 whole entry): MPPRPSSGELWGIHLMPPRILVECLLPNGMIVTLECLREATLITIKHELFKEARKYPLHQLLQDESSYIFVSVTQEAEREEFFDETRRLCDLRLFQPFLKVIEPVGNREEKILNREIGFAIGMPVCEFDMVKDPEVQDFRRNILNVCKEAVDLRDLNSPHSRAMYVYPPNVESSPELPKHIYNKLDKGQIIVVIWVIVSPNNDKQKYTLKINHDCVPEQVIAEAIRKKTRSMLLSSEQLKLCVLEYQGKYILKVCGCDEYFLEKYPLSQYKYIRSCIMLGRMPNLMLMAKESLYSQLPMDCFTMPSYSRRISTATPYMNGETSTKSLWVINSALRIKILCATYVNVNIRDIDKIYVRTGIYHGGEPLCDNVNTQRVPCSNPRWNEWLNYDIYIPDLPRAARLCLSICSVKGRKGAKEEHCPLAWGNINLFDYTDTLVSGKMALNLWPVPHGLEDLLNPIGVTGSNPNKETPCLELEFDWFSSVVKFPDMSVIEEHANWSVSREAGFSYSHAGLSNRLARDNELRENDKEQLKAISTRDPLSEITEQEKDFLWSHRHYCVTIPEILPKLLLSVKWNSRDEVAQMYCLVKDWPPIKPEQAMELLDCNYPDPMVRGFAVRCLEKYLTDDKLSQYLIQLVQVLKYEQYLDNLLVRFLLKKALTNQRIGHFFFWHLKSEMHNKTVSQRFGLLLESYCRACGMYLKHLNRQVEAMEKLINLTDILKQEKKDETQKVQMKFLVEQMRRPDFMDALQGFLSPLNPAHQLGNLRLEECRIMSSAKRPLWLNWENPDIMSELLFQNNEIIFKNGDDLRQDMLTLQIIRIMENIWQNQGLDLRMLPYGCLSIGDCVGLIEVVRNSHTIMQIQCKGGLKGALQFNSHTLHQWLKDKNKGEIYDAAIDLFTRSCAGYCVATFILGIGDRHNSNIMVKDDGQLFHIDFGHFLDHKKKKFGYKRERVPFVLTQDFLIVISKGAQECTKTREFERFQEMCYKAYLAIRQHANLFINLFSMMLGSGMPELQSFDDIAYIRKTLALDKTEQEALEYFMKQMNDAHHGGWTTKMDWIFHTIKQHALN
T1 sequence (P27986 whole entry partner): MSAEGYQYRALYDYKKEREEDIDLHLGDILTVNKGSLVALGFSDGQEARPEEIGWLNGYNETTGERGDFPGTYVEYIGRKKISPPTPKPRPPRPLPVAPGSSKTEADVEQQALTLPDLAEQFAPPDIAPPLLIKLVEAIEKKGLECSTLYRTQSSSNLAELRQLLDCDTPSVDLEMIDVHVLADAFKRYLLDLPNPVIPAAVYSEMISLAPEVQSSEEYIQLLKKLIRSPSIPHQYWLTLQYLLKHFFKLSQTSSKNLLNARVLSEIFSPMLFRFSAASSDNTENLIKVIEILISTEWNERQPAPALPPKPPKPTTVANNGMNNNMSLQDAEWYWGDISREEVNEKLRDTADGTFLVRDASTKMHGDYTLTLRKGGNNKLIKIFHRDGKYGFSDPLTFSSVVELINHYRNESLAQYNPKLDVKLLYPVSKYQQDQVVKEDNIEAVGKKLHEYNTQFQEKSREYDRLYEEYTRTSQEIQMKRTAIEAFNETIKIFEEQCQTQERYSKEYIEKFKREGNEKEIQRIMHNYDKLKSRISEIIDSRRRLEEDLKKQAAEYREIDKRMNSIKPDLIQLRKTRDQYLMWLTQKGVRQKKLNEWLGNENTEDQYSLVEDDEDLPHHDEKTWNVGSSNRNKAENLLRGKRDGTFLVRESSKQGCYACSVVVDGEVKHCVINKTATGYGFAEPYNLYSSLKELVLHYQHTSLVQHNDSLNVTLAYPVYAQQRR
The experiment in a line: Determination of PI3K kinase activity (ADP Transcreener, fluorescence polarization). The assay is classed as biochemical. The following applies: Table 1; ATP 10 μM; read-out: PI3K-α/nM (IC50 of inhibitory activity against PI3K kinase).

In another assay the test system is T47D cells. The experiment in a line: Cell inhibitory activity detected by MTT assay, T47D. The assay is classed as cell-based. The note with it: Homo sapiens, T47D, 72 h, read-out: T47D cell (IC50/nM), cell growth inhibition. As for the experimental part: as §1, with “T47D” for “MCF-7”, “RPMI-1640” for “DMEM”, “SH30809.01B)+10%” for “SH30243.01B+10%”
Another assay addresses T2, PI3K-γ kinase (p110γ) (Homo sapiens, UniProt P48736).
T2 construct: purchased Invitrogen PV4786
The experiment in a line: Determination of PI3K kinase activity (ADP Transcreener, fluorescence polarization). Type of assay: biochemical. The following applies: Table 1; ATP 10 μM; read-out: PI3K-γ/nM (IC50 of inhibitory activity against PI3K kinase). As for the experimental part: The PI3K kinase used in the experiment: p110α/p85α (Invitrogen PV4788), p110β/p85α (Millipore 14-603), p110δ/p85α (Millipore 14-604M), and p110γ (Invitrogen PV4786).
The inhibition of PI3K kinase activity by the compound to be tested was determined by the following method. The working concentration of each component in the 25 μL enzyme reaction system was: p110α/p85α 3 ng (or p110β/p85α 60 ng, or p110δ/p85α 90 ng, or p110γ 100 ng), ATP 10 μM, PIP2: PS (Invitrogen PV5100) 30 μM and the DMSO concentration was 2% after addition of the compound to be tested.
At the time of the test, the compound to be tested was dissolved in dimethylsulfoxide (DMSO) according to the desired concentration of the experiment. The compound to be tested was gradiently diluted 3 times (0.00046-1 μM, 8 concentration points) with 10% DMSO. 5 μL of the compound to be tested was added to each well of a 96-well plate (Greiner 675076) in duplicate. 2.5× buffer was prepared and 1 μL of DTT (Millipore 20-265) was added to each 800 μL of 2.5× buffer. […] 10 μL of ATP/PIP2: PS and 10 μL of the PI3K enzyme working solution were added to each well in a 96-well plate. The plate was shaken and mixed uniformly, and then incubated at 25° C. for 1 hour. At the same time, ADP and ATP (0.01 μM, 0.02 μM, 0.04 μM, 0.06 μM, 0.08 μM[…], 0.1 μM, 0.25 μM, 0.5 μM, 1 μM, 2 μM, 5 μM, 10 μM, 12 concentration points) were diluted with buffer to set the standard curve. After completion of the enzyme reaction, 25 μL of ADP assay solution (1% 100×ADP tracer, 0.79% ADP antibody and 10% 10× reaction stop solution) was added and incubated at 25° C. for 1 hour. Fluorescence polarization value [mP] of each well was measured with a Perkin Elmer Victor X5 Fluorescent Microplate. The ADP concentration [ADP] was calculated from the ADP/ATP standard curve and the IC50 values were calculated using the XLFit software.
(In general: In fluorescence polarisation assays a small probe gives low polarisation when free and higher when bound to something large.)

Assay [2] concerns the target T3, PI3K-β kinase (p110β/p85α) (Homo sapiens, UniProt P42338).
T3 construct: purchased Millipore 14-603
The description is as above. Type of assay: biochemical. The following applies: Table 1; ATP 10 μM; read-out: PI3K-β/nM (IC50 of inhibitory activity against PI3K kinase).

For assay [3], the target named is T4, PI3K-δ kinase (p110δ/p85α) (Homo sapiens, UniProt O00329).
T4 construct: purchased Millipore 14-604M
T4 sequence (O00329 whole entry): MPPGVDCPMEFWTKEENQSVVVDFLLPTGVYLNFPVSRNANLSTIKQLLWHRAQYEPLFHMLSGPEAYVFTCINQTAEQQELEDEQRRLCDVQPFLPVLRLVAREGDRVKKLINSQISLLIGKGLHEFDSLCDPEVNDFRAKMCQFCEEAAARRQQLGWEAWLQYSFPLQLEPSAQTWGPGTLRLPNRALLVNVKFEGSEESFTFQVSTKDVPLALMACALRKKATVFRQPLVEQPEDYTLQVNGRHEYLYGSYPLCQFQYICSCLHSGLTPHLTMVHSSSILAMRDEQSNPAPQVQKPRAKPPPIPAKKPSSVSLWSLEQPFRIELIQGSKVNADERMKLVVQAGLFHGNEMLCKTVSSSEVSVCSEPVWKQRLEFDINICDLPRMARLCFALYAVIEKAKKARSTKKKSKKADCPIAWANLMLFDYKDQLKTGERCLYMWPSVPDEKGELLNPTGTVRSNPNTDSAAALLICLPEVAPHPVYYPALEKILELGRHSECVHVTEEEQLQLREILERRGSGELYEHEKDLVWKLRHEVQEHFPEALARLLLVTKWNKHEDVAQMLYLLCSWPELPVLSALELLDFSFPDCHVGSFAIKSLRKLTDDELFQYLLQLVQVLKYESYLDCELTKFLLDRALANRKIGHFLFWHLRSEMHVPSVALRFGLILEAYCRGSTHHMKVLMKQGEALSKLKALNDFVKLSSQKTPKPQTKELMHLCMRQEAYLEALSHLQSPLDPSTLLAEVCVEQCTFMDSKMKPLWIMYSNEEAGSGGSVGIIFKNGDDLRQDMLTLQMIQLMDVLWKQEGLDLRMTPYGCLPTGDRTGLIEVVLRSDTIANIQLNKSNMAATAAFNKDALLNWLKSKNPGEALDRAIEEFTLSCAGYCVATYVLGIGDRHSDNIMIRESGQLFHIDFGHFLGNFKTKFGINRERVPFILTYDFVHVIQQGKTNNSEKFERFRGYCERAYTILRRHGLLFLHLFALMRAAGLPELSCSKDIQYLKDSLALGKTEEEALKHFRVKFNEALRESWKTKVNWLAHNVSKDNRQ
T4 sequence (P27986 whole entry partner): as the sequence (P27986 whole entry partner) above
The assay is described as above. The assay is classed as biochemical. The following applies: Table 1; ATP 10 μM; read-out: PI3K-δ/nM (IC50 of inhibitory activity against PI3K kinase).

T2 sequence (P48736 whole entry): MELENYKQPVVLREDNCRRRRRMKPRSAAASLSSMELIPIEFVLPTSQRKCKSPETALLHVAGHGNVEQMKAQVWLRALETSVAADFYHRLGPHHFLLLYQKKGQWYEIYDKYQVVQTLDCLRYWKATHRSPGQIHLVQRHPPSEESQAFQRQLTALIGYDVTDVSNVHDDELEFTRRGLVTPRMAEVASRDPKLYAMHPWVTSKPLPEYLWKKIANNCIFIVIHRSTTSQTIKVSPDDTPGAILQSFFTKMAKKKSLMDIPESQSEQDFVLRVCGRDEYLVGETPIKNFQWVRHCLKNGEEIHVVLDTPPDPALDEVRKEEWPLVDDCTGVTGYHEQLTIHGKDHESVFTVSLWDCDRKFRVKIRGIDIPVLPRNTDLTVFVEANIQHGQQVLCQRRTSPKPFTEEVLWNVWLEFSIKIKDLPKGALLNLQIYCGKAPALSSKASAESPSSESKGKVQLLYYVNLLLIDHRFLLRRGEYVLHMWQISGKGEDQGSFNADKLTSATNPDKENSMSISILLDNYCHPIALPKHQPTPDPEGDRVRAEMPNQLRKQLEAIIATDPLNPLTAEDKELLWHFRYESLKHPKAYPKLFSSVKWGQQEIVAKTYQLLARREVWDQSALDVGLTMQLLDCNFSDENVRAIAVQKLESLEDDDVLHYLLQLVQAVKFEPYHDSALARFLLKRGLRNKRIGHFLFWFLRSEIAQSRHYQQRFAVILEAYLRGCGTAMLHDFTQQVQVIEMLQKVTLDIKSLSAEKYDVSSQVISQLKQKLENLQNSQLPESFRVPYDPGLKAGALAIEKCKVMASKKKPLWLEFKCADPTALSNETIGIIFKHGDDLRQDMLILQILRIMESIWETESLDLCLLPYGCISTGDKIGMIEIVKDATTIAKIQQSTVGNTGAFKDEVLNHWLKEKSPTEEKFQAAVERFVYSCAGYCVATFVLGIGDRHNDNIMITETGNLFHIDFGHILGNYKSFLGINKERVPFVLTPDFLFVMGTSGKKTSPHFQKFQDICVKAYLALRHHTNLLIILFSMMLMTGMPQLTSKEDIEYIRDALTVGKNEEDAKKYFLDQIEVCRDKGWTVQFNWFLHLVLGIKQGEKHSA
T3 sequence (P42338 whole entry): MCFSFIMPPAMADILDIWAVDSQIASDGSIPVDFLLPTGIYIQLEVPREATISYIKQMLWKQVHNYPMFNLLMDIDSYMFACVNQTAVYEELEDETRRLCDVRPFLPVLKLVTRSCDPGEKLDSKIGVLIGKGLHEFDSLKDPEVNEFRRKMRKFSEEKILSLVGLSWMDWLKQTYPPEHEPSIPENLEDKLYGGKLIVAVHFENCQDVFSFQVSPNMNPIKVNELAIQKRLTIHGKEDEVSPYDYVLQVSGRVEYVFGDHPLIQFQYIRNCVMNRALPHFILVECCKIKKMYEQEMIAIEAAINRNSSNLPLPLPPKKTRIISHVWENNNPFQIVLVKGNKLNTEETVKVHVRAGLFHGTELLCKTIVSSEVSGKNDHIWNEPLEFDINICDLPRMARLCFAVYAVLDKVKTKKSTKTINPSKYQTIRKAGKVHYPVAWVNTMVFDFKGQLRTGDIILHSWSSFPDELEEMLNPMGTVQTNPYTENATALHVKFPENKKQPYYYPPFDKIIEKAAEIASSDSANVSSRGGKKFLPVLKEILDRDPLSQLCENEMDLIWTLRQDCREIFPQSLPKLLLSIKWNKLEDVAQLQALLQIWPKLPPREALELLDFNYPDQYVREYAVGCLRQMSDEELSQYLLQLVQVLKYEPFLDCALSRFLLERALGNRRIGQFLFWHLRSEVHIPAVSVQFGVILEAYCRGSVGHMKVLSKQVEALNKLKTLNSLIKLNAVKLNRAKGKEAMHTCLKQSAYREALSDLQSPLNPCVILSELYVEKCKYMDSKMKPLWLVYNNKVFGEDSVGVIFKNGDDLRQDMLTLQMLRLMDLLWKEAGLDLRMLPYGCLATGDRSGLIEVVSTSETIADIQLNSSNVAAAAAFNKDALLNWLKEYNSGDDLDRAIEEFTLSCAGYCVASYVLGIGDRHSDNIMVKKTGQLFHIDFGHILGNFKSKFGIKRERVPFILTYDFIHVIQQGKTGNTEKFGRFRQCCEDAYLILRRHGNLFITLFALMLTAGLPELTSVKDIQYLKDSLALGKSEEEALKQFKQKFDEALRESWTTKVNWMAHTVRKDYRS
T3 sequence (P27986 whole entry partner): as the sequence (P27986 whole entry partner) above

As to `C[C@H]1COCCN1c1nc(-c2cnc(N)cc2C(F)(F)F)cc(C2(S(C)(=O)=O)CC2)n1` [Compound S-6], the IC50 in the assay on MCF-7 cells was 112 nM; in the assay with NIH3T3 cells, 1000 to 3000 nM; in assay [1], 16 nM; with T47D cells, 129 nM; at PI3K-γ kinase (p110γ), 164 nM.

On to `CN(C1(c2cc(-c3cnc(N)cc3C(F)(F)F)nc(N3CCOCC3)n2)CC1)S(C)(=O)=O` [Compound S-14, N-(1-(6-(6-amino-4-(trifluoromethyl)pyridin-3-yl)-2-morpholinopyrimidin-4-yl)cyclopropyl)-N-methylmethanesulfonamide], for which the IC50 in the assay on MCF-7 cells was 267 nM; in the assay on NIH3T3 cells, 1000 to 3000 nM; in assay [1], 13 nM; in assay [2] it was 1120 nM; in the assay with T47D cells it was 278 nM.

Regarding `CC(C)S(=O)(=O)C(C)(C)c1cc(-c2cnc(N)cc2C(F)(F)F)nc(N2CCOCC2)n1` [Compound S-22], the IC50 with NIH3T3 cells is 1000 to 3000 nM; in assay [1], 55 nM; in assay [3], 491 nM; in assay [2], 1540 nM; at PI3K-γ kinase (p110γ), 2120 nM.

In the case of `CS(=O)(=O)NC1(c2cc(-c3cnc(N)cc3C(F)(F)F)nc(N3CCOCC3)n2)CC1` [Compound S-24, N-(1-(6-(6-amino-4-(trifluoromethyl)pyridin-3-yl)-2-morpholinopyrimidin-4-yl)cyclopropyl)methanesulfon amide], the IC50 was 5000 to 10000 nM in the assay with NIH3T3 cells; 10 nM in assay [1]; 85 nM in assay [3]; 376 nM in assay [2]; 305 nM in the assay with T47D cells; 291 nM at PI3K-γ kinase (p110γ).

Take `Nc1cc(C(F)(F)F)c(-c2cc(C3(S(=O)(=O)c4ccccc4)CC3)nc(N3CCOCC3)n2)cn1` [Compound S-25]: the IC50 was 1000 to 3000 nM with NIH3T3 cells; 26 nM in assay [1]; 67 nM in assay [3]; 217 nM in assay [2]; 324 nM in the assay on T47D cells; 1930 nM on PI3K-γ kinase (p110γ).

As for `CCS(=O)(=O)C(C)(C)c1cc(-c2cnc(N)cc2C(F)(F)F)nc(N2CCOCC2)n1` [Compound S-29], the IC50 in the assay on NIH3T3 cells was 1000 to 3000 nM; in assay [3] it was 612 nM; in assay [2], 1740 nM; on PI3K-γ kinase (p110γ) it was 256 nM.

For `CS(=O)(=O)C(F)c1cc(-c2cnc(N)cc2C(F)(F)F)nc(N2CCOCC2)n1` (stereo not shown) [Compound S-52, 5-(6-(fluoro(methylsulfonyl)methyl)-2-morpholinopyrimidin-4-yl)-4-(trifluoromethyl)pyridin-2-amine], the IC50 in the assay with NIH3T3 cells was 3000 to 5000 nM; in assay [1] it was 18 nM; in assay [3], 336 nM; in assay [2], 2780 nM; on PI3K-γ kinase (p110γ), 914 nM.

`CS(=O)(=O)C(F)(F)c1cc(-c2cnc(N)cc2C(F)(F)F)nc(N2CCOCC2)n1` [Compound S-53]: the IC50 was 408 nM in the assay on MCF-7 cells; 1000 to 3000 nM with NIH3T3 cells; 33 nM in assay [1]; 516 nM in assay [3]; 1550 nM in assay [2]; 287 nM on PI3K-γ kinase (p110γ).

In the case of `Nc1cc(C(F)(F)F)c(-c2cc(C3(S(=O)(=O)c4cccc(F)c4)CC3)nc(N3CCOCC3)n2)cn1` [Compound S-57, 5-(6-(1-(3-fluorophenylsulfonyl)cyclopropyl)-2-morpholinopyrimidin-4-yl)-4-(trifluoromethyl)pyridin-2-amine], the IC50 with MCF-7 cells was 286 nM; with NIH3T3 cells, 1000 to 3000 nM; in assay [1], 18 nM; in assay [3], 62 nM; in assay [2] it was 284 nM; in the assay with T47D cells it was 242 nM. At PI3K-γ kinase (p110γ), the IC50 came to 236 nM.
